Our source for the IC50 values is BindingDB's records for doi:10.1002/cbic.201300187 (The Johns Hopkins University, 2013).

The target in this assay is T1, 1-deoxy-D-xylulose-5-phosphate synthase (Escherichia coli (strain K12), UniProt P77488).
T1 sequence (P77488 whole entry): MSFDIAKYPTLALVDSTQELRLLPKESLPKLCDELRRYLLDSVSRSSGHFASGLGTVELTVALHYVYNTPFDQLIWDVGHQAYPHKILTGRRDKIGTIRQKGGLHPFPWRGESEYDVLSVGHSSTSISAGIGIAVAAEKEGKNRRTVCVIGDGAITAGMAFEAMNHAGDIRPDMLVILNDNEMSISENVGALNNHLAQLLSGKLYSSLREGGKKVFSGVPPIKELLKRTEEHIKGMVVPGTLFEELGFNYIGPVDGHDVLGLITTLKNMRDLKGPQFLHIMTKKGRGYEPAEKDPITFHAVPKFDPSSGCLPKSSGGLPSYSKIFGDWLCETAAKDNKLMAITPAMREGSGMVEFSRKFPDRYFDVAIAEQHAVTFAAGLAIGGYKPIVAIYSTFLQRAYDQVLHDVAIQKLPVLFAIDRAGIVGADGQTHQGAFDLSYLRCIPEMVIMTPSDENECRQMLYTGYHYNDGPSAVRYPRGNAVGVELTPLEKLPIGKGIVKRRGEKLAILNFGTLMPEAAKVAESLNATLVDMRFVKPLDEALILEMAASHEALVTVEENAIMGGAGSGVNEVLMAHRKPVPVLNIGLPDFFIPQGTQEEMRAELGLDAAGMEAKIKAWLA
The assay is described as follows: DXP Synthase Inhibition Assay. Conditions: pH 8; 37 °C. Here is the method:
Reaction mixtures containing HEPES (100mM, pH 8.0, 2mM MgCl2, 5mM NaCl), ThDP (1mM), BSA (1mg/mL), DMSO (10%, v/v), ᴅ-GAP (30µM), pyruvate (80µM), and various concentrations of nitroso inhibitor were preincubated at 37°C for 5 min. Enzyme reactions were initiated by addition of DXP synthase (0.1µM). Aliquots (150µL) of the enzymatic mixture were removed between 0.5 and 3 min and quenched in ice-cold methanol (150µL).
As to `Cc1nn(C(C)C)c(C)c1N=O` [1‐isopropyl‐3,5‐dimethyl‐4‐nitrosopyrazole (Substrate 9)], the IC50 is over 2000 µM.

`COc1ccc2ccc(O)c(N=O)c2c1` [7‐methoxy‐1‐nitrosonaphthalen‐2‐ol (Substrate 8)] came in with an IC50 of over 2000 µM.

As for `CN(C)c1ccc(N=O)cc1` [NDMA (Substrate 4)], the IC50 came out at 844 µM.

`O=Nc1ccccc1` [NOB] yielded an IC50 of 208 µM.
